Reference: PubChem BioAssay (NCI)
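Cultured in 96-well plates, cells were exposed to test compound for 48 hours across five concentrations. The concentration for full growth arrest is given as TGI.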

Assays:
Assay in all cases: growth of human tumour cells (NCI), 48 h
SNB-78 CNS = test system: SNB-78 CNS
ACHN renal = test system: ACHN renal
LXFL 529 NSCLC = test system: LXFL 529 NSCLC
RXF 393 renal = test system: RXF 393 renal
RXF-631 renal = test system: RXF-631 renal
DMS 273 small cell lung = test system: DMS 273 small cell lung
IGROV1 ovarian = test system: IGROV1 ovarian
SF-539 CNS = test system: SF-539 CNS
HCT-15 colon = test system: HCT-15 colon
NCI-H522 lung = test system: NCI-H522 lung
TK-10 renal = test system: TK-10 renal
NCI-H23 lung = test system: NCI-H23 lung
SK-OV-3 ovarian = test system: SK-OV-3 ovarian
EKVX NSCLC = test system: EKVX NSCLC
NCI-H460 lung = test system: NCI-H460 lung
CCRF-CEM leukemia = test system: CCRF-CEM leukemia
HOP-92 NSCLC = test system: HOP-92 NSCLC
A498 renal = test system: A498 renal
LOX IMVI melanoma = test system: LOX IMVI melanoma
HCC-2998 colon = test system: HCC-2998 colon
NCI-H226 lung = test system: NCI-H226 lung
K-562 leukemia = test system: K-562 leukemia
HT29 colon = test system: HT29 colon
A549 NSCLC = test system: A549 NSCLC
U251 CNS = test system: U251 CNS
OVCAR-8 ovarian = test system: OVCAR-8 ovarian
SF-295 CNS = test system: SF-295 CNS
CAKI-1 renal = test system: CAKI-1 renal
SK-MEL-28 melanoma = test system: SK-MEL-28 melanoma
M14 melanoma = test system: M14 melanoma
UACC-257 melanoma = test system: UACC-257 melanoma
UO-31 renal = test system: UO-31 renal
786-0 renal = test system: 786-0 renal
KM12 colon = test system: KM12 colon
SN12C renal = test system: SN12C renal
OVCAR-3 ovarian = test system: OVCAR-3 ovarian
SW-620 colon = test system: SW-620 colon
HOP-18 NSCLC = test system: HOP-18 NSCLC
HCT-116 colon = test system: HCT-116 colon
DLD-1 colon = test system: DLD-1 colon
COLO 205 colon = test system: COLO 205 colon
RPMI-8226 leukemia = test system: RPMI-8226 leukemia
SK-MEL-5 melanoma = test system: SK-MEL-5 melanoma
UACC-62 melanoma = test system: UACC-62 melanoma
SNB-75 CNS = test system: SNB-75 CNS
MOLT-4 leukemia = test system: MOLT-4 leukemia
SK-MEL-2 melanoma = test system: SK-MEL-2 melanoma
HL-60(TB) leukemia = test system: HL-60(TB) leukemia
HOP-62 NSCLC = test system: HOP-62 NSCLC
SF-268 CNS = test system: SF-268 CNS
SNB-19 CNS = test system: SNB-19 CNS
DMS 114 small cell lung = test system: DMS 114 small cell lung
SR leukemia = test system: SR leukemia
OVCAR-5 ovarian = test system: OVCAR-5 ovarian
MALME-3M melanoma = test system: MALME-3M melanoma
M19-MEL melanoma = test system: M19-MEL melanoma
KM20L2 colon = test system: KM20L2 colon
XF 498 CNS = test system: XF 498 CNS
BT-549 breast = test system: BT-549 breast
MDA-MB-435 = test system: MDA-MB-435
MDA-N = test system: MDA-N
MCF7 breast = test system: MCF7 breast
NCI/ADR-RES ovarian = test system: NCI/ADR-RES ovarian
T-47D breast = test system: T-47D breast
PC-3 prostate = test system: PC-3 prostate
DU-145 prostate = test system: DU-145 prostate
MDA-MB-231 breast = test system: MDA-MB-231 breast
OVCAR-4 ovarian = test system: OVCAR-4 ovarian

Measured: TGI

CN[C@@H](C)[C@H](N)c1ccccc1
not listed: SK-MEL-2 melanoma | HL-60(TB) leukemia | HOP-62 NSCLC | SF-268 CNS | SNB-19 CNS | DMS 114 small cell lung | SR leukemia | OVCAR-5 ovarian | MALME-3M melanoma | M19-MEL melanoma | KM20L2 colon | XF 498 CNS | BT-549 breast | MDA-MB-435 | MDA-N | MCF7 breast | NCI/ADR-RES ovarian | T-47D breast | PC-3 prostate | DU-145 prostate | MDA-MB-231 breast | OVCAR-4 ovarian
> 100 µM: all other assays above

CC1(C)C=N[N+]2(C)C3C=CC(CC3)C12 (stereo not given)
not listed: DMS 273 small cell lung | SW-620 colon | XF 498 CNS | BT-549 breast | MDA-MB-435 | MDA-N | MCF7 breast | NCI/ADR-RES ovarian | T-47D breast | PC-3 prostate | DU-145 prostate | MDA-MB-231 breast | OVCAR-4 ovarian
> 100 µM: all other assays above

COc1cccc2c1C(=O)c1c(O)c3c(c(O)c1C2=O)C[C@@](O)(C(=O)CO)CC3OC1CC(O)C(O)C(C)O1 (stereo not given in full)
2.05 µM: MDA-MB-435
2.99 µM: UACC-257 melanoma
0.55 µM: HL-60(TB) leukemia
0.687 µM: SK-MEL-5 melanoma
11.6 µM: TK-10 renal
21.2 µM: RXF-631 renal
0.572 µM: HCT-116 colon
1.5 µM: NCI-H522 lung
1.98 µM: MDA-N
1.29 µM: A498 renal
0.217 µM: HOP-62 NSCLC
0.219 µM: NCI-H226 lung
1.96 µM: M19-MEL melanoma
1.88 µM: M14 melanoma
6.28 µM: KM20L2 colon
5.51 µM: K-562 leukemia
3.66 µM: OVCAR-5 ovarian
21.6 µM: MCF7 breast
3.99 µM: A549 NSCLC
5.44 µM: T-47D breast
1.24 µM: XF 498 CNS
0.958 µM: DMS 114 small cell lung
2.53 µM: LOX IMVI melanoma
> 35.4 µM: CCRF-CEM leukemia
0.4 µM: DMS 273 small cell lung
7.49 µM: EKVX NSCLC | KM12 colon
9.41 µM: SNB-78 CNS
2.26 µM: HOP-92 NSCLC
1.08 µM: SNB-75 CNS
13.9 µM: U251 CNS
6.85 µM: OVCAR-4 ovarian
2.39 µM: PC-3 prostate
6.06 µM: HOP-18 NSCLC
9.78 µM: OVCAR-8 ovarian
0.501 µM: NCI-H23 lung
12.5 µM: NCI/ADR-RES ovarian | 786-0 renal
23.6 µM: IGROV1 ovarian
6 µM: MDA-MB-231 breast
0.492 µM: UACC-62 melanoma
1.8 µM: NCI-H460 lung
4.25 µM: HT29 colon
5.89 µM: HCT-15 colon
9.26 µM: LXFL 529 NSCLC
11.3 µM: OVCAR-3 ovarian
1.81 µM: SF-268 CNS
17.3 µM: SW-620 colon
7.29 µM: SK-OV-3 ovarian
8.19 µM: SN12C renal
0.795 µM: SF-539 CNS
0.598 µM: ACHN renal
1.16 µM: SF-295 CNS
0.176 µM: DU-145 prostate
0.957 µM: RXF 393 renal
0.806 µM: MALME-3M melanoma
2.41 µM: UO-31 renal
12.1 µM: CAKI-1 renal
2.93 µM: SNB-19 CNS
1.58 µM: SK-MEL-2 melanoma
2.08 µM: HCC-2998 colon
1.47 µM: BT-549 breast
2.28 µM: SK-MEL-28 melanoma
10.8 µM: DLD-1 colon

CCOC(=O)C1=C(C)N(NC(N)=O)C(C)(O)C12CCOC2=O (stereo not given)
34.5 µM: SNB-78 CNS
not listed: RXF 393 renal | TK-10 renal | NCI-H23 lung | CCRF-CEM leukemia | HOP-92 NSCLC | HOP-18 NSCLC | COLO 205 colon | DMS 114 small cell lung | BT-549 breast | MDA-MB-435 | MDA-N | MCF7 breast | NCI/ADR-RES ovarian | T-47D breast | PC-3 prostate | DU-145 prostate | MDA-MB-231 breast
> 100 µM: all other assays above

O=[N+]([O-])c1cc(Cl)ccc1OCc1ccccc1
92.5 µM: HOP-92 NSCLC
96.5 µM: NCI-H23 lung
90.8 µM: SNB-75 CNS
70.5 µM: SK-MEL-5 melanoma
84.1 µM: HT29 colon
not listed: NCI-H522 lung | NCI-H226 lung | CAKI-1 renal | UO-31 renal | HOP-18 NSCLC | SNB-19 CNS | OVCAR-5 ovarian | KM20L2 colon | BT-549 breast | MDA-MB-435 | MDA-N | MCF7 breast | NCI/ADR-RES ovarian | T-47D breast | PC-3 prostate | DU-145 prostate | MDA-MB-231 breast
> 100 µM: all other assays above

Cc1cccc(N2C(=O)C(=O)C(c3nc4ccccc4s3)/C(=N/NC(=S)NN)C2=O)c1C (stereo not given)
not listed: CCRF-CEM leukemia | HT29 colon | A549 NSCLC | HOP-18 NSCLC | DLD-1 colon | HL-60(TB) leukemia | SR leukemia | BT-549 breast | MDA-MB-435 | MDA-N | MCF7 breast | NCI/ADR-RES ovarian | T-47D breast | PC-3 prostate | DU-145 prostate | MDA-MB-231 breast
> 100 µM: all other assays above

O=C(CC1(O)C(=O)Nc2ccccc21)c1ccc(O)cc1 (stereo not given)
not listed: NCI-H522 lung | OVCAR-8 ovarian | XF 498 CNS | BT-549 breast | MDA-MB-435 | MDA-N | MCF7 breast | NCI/ADR-RES ovarian | T-47D breast | PC-3 prostate | DU-145 prostate | MDA-MB-231 breast
> 100 µM: all other assays above
